Test results from patent US20220305015A1, “COMBINATORIAL THERAPY TARGETING PARP1 AND RTK” (Board of Regents, The University of Texas System, priority 2019, published 2022).

Assays:
HCC1806-BR cells = assay: MTT assay, survival of HCC1806-BR and HCC1806 parental cells; type: cell-based; settings: 6 days of PARPi
Experimental: FIGS. 7A-7B. Activation of FGFR3 in HCC1806-BR cells. […] HCC1806-BR cells were developed by treating HCC1806 cells with […] talazoparib continuously for 9 months. Survival of HCC1806-BR and HCC1806 parental cells in response to talazoparib, olaparib, and rucaparib was measured by exposing cells to various concentrations of the indicated PARPi for 6 days before performing the MTT assay. (FIG. 7B) Antibody arrays of receptor tyrosine kinase activation in HCC1806 parental cells and HCC1806-BR cells. Cells were treated with either dimethyl sulfoxide (DMSO) or talazoparib overnight before being harvested for RTK antibody array analysis. PBS, phosphate-buffered saline.
(§1) Cells were seeded at a concentration of 1,000 cells/well in a 96-well plate and cultured overnight before treatments with inhibitors. Inhibitor-containing media was refreshed every 3 days for a 6-day treatment schedule. Cells were incubated with 0.5 mg/ml thiazolyl blue tetrazolium bromide (Sigma-Aldrich) for 2 hours, and formazan crystals were dissolved using DMSO. Optical density at 565 nm was measured and survival percentages were calculated by normalizing the optical density value of each treatment group to that of the control group, treated with DMSO only. Half-maximal inhibitory concentrations of inhibitors were calculated using the standard curve interpolate function in GraphPad Prism 8.

[1] = system: SUM149-derived talazoparib-resistant (BR) cells; assay: MTT assay, cell survival; type: cell-based; settings: for cross-resistance of BR cells to PARPi: talazoparib-resistant BR cells, MTT assay
Experimental: as §1
For Western blot signal quantification, signal intensities were analyzed using Image Studio Lite (version 5.2; LI-COR Biosciences). Signals of PARP1, PARylation, FGFR3, and phosphorylated FGFR were first normalized to house-keeping proteins (tubulin, actin, or GAPDH) of each sample before being normalized to the control groups. Every independent experiment repeat was quantified individually. Fold changes in Western blot signals were analyzed by a nonparametric Friedman test using the GraphPad Prism 8.0 software. A p value of less than 0.05 was considered statistically significant: *p <0.05; **p <0.002; ***p <0.001. Combination index experiments were designed according to the Chou-Talalay method^39, and results were calculated using Compusyn software.

BR# 17 cells [2] = assay: BR# 17 orthotopic xenograft mouse model; type: in vivo, mice; settings: BR# 17 model; oral gavage daily; olaparib 40, AZD4547 8, talazoparib 0.25, PD173074 15 mg/kg per day
Experimental: (§2) Animal studies were performed following a protocol approved by The University of Texas MD Anderson Cancer Center Institutional Animal Care and Use Committee. Female nude mice were purchased from the Department of Experimental Radiation Oncology at MD Anderson. For BR# 09 and BR# 17 xenograft mouse models, two million cells were mixed with 50% (v/v) growth factor reduced Matrigel matrix (Corning) and inoculated into the mammary fat pads of 6- to 8-week-old female nude mice. For the 4T1 model, female Balb/c mice were purchased from Jackson Laboratory. A total of 50,000 4T1 cells were mixed with Matrigel matrix and inoculated into the mammary fat pad of 6-week-old female Balb/c mice. Inhibitors were dissolved in vehicle solvent containing 10% dimethylacetamide (Sigma-Aldrich), 5% Kolliphor HS 15 (Sigma-Aldrich), and 85% phosphate-buffered saline (Evans et al., 2017). […] Treatment with inhibitors started when tumor volumes reached a mean of 120 mm^3. Mice were treated using oral gavage daily for 20 days followed by 3 days with no drugs to prevent severe weight loss. After the first cycle, treatment was continued on a schedule of 6 days on and 1 day off. Mouse weight and tumor volume were measured three times every week. Tumor volume was estimated using the following formula: volume (mm^3) =length (mm)×width (mm)×0.5 width (mm), where length is the longest axis of the tumor. Mice were euthanized using CO2 when the tumor volume reached 2,000 mm^3. For the blood chemical test, mouse cardiac blood was collected by veterinarians in the Department of Veterinary Medicine and Surgery at MD Anderson after 16 days of treatment. Concentrations of alanine aminotransferase, aspartate aminotransferase, and blood urea nitrogen in Balb/c mice were referred to North American colonies of Charles River Balb/c mice.

BR# 09 cells = assay: BR# 09 orthotopic xenograft mouse model; type: in vivo, mice; settings: for tumor growth: BR# 09 model, oral gavage daily, olaparib 40, AZD4547 8, talazoparib 0.25, PD173074 15 mg/kg per day; for talazoparib-induced FGFR phosphorylation in tumors: 3 days
Experimental: as §2

BR# 17 cells [3] = assay: yH2AX foci immunofluorescence staining after MMS; type: cell-based; settings: after MMS removal
Experimental: FIGS. 2A-2C: Inhibition of FGFR3 decreases DNA damage repair. (FIG. 2A) SUM149-derived talazoparib-resistant (BR)# 17 cells were treated for 1 hour with methyl methanesulfonate (MMS), talazoparib (Tala), and PD173074 (PD) as indicated. After MMS removal, cells were cultured for the indicated time before immunofluorescence staining. Representative images of yH2AX (green) and DNA (blue) are shown. […] (FIG. 2B) For comet assay analysis, BR# 09 cells were incubated for another 3 hours after MMS removal. DNA damage was normalized to that of the talazoparib-treated group. Mean ±standard deviation is shown (n >100). (FIG. 2C) Combination index (CI) of talazoparib and PD173074 in BR cells, measured by colony formation assay. Analysis of variance was used for statistical comparisons.
Immunofluorescence staining and confocal microscopy were performed as previously described (Chen, et al., 2019). Cells were treated with DMSO (solvent control), talazoparib (125 nM for BR# 09; 250 nM for BR# 17), PD173074 (10 μM), or the combination of talazoparib and PD173074 for the time indicated. […] In both immunostaining and the proximity ligation assay, images of the cells were captured and analyzed with an LSM 710 laser confocal microscope and Zeiss Zen software (Carl Zeiss) and foci counting was performed using BlobFinder (Allalou and Wahlby, 2020).

[4] = system: SUM149-derived talazoparib-resistant (BR) cells; assay: Colony formation assay; type: cell-based; settings: colony formation assays; BR cells vs SUM149 parental cells
Experimental: SUM149 cells (600 cells/well), BR# 09 cells (800 cells/well), and BR# 17 cells (1,000 cells/well) were seeded into a 12-well plate 18 hours before treatments. Inhibitor-containing media was refreshed every 2 days. Cells were fixed using 4% paraformaldehyde after 10-14 days of treatment. Colonies were stained with 0.5% crystal violet before plates were imaged, and colony number was quantified using the Celigo imaging cytometer (Nexcelom Bioscience). Cell survival rate was calculated by normalizing the number of colonies in each well to that of the vehicle-treated well on the same culture plate.

FGFR3 = target: T1, FGFR3 (Homo sapiens, UniProt P22607); assay: Western blot of FGFR phosphorylation in cells treated with MMS and talazoparib; type: cell-based; settings: BR# 09 and BR# 17 cells; 5 μM FGFRi
T1 construct: endogenous in cells; host or cells: SUM149 parental cells and SUM149-derived talazoparib-resistant BR cells (BR#09, BR#17)
T1 sequence (P22607 23-806): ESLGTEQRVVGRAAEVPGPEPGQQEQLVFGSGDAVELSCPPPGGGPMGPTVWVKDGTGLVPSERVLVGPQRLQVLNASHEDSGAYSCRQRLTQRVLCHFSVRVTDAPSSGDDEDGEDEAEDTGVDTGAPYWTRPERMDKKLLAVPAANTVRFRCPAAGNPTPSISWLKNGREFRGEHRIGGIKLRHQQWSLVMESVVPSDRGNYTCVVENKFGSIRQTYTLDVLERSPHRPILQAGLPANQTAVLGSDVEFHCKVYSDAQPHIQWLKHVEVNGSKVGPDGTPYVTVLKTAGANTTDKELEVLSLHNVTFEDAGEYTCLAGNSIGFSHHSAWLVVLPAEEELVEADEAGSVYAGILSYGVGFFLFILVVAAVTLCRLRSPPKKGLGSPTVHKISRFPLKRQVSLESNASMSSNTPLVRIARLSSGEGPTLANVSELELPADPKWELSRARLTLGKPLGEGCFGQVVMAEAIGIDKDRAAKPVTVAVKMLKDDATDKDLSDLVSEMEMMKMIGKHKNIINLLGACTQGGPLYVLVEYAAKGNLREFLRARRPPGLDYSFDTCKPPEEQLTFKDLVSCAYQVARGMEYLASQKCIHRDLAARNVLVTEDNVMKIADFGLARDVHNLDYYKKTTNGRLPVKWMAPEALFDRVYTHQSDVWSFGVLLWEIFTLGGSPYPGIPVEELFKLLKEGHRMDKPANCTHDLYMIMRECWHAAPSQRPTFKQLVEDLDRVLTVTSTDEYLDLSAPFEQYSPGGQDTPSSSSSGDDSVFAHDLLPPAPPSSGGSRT
Experimental: (FIG. 8B) BR# 17 cells were treated with 250 nM talazoparib and 0.01% MMS and FGFRi for 1 hour before being fixed and subjected to immunofluorescence staining with antibodies against FGFR3 (TexasRed, red) and yH2AX (FITC, green).

p-Y158 PARP1 = assay: Western blot of Y158-phosphorylated PARP1 in BR cells; type: cell-based
Source text: FIGS. 3A-3E: FGFR3 mediates PARP inhibitor resistance by phosphorylating PARP1 at Y158 residue. (FIG. 3A) Proximity ligation assay (PLA) signals of FGFR3 and PARP1 (red), phalloidin (green), and DNA (blue) were merged in representative images of the treatment indicated (MMS, methyl methanesulfonate; Tala, talazoparib; PD, PD173074; BR, SUM149-derived talazoparib-resistant cells). Mean ±95% confidence interval PLA signals in each cell nucleus are shown in the histograms (n >100). *p <0.05; ***p <0.001; n.s., not significant. (FIG. 3B) Cell survival of BR cells with PARP1 knockdown expressing hemagglutinin-tagged vector control (Neo), wild-type PARP1 (WT), or PARP1^Y158F (Y158F) mutant in response to talazoparib, measured by MTT assay (mean ±standard deviation; n >3). (FIG. 3C) BR# 17 cells were treated with MMS, talazoparib, and PD173074 as indicated for Western blot analysis. (FIG. 3D) Combination index (CI) of talazoparib and PD173074 in BR# 17 cells expressing PARP1^WT or PARP1^Y158F measured by MTT assay. (FIG. 3E) Cells were harvested at different time points after 40 minutes of treatment with talazoparib and MMS. […]
The precipitated protein complex was then washed and subjected to Western blot analysis performed as described previously (Chen, et al., 2019). Signals were detected using the ImageQuant 4000 system (GE Healthcare) and quantified using Image Studio Lite.

PARP1 = target: T2, PARP1 (Homo sapiens, UniProt P09874); assay: PARP trapping assay (chromatin-bound PARP1); type: cell-based; settings: BR cells, 10 μM PD173074, 100 nM talazoparib, MMS
T2 construct: endogenous in cells; host or cells: SUM149-derived talazoparib-resistant (BR) cells
T2 sequence (P09874 whole entry): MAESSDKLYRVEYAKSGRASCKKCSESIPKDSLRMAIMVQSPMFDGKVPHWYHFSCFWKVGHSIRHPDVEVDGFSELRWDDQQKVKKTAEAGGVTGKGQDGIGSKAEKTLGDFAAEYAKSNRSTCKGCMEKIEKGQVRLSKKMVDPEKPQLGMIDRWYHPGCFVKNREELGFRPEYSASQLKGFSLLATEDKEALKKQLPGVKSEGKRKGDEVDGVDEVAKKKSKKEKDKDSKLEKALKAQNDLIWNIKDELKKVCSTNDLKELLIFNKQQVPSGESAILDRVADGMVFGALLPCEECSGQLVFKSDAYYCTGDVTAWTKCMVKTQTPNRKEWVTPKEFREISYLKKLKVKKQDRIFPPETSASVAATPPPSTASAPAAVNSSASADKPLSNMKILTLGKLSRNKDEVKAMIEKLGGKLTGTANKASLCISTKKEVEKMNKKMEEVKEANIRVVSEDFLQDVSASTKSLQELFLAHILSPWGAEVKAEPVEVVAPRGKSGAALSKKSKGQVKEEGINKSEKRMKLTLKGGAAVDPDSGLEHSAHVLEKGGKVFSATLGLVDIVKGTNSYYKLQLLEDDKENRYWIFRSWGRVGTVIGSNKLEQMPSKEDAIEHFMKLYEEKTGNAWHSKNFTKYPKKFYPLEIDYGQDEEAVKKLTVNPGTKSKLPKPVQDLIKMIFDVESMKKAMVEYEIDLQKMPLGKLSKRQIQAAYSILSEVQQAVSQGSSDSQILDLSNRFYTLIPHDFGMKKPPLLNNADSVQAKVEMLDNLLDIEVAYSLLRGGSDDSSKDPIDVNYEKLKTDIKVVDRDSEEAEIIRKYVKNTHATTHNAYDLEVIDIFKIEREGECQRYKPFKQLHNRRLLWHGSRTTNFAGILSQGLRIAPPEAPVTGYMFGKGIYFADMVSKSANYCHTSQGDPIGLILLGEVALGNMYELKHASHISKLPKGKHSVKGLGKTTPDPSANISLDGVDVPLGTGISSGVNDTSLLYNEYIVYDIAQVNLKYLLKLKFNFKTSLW

[5] = target: His-tagged PARP1 recombinant protein (UniProt P09874)
Sequence of His-tagged PARP1 recombinant protein (P09874 whole entry, looked up): as the sequence (P09874 whole entry) above

| Compound | resistance of HCC1806-BR cells compared with HCC1806 parental cells (HCC1806-BR cells) | cross-resistance of BR cells to PARPi [1] | tumor growth (BR# 17 cells [2]) | tumor growth (BR# 09 cells) | also measured |
| --- | --- | --- | --- | --- | --- |
| CNCc1ccc(-c2[nH]c3cc(F)cc4c3c2CCNC4=O)cc1 [rucaparib] | more resistant | cross-resistance | – | – | – |
| O=C(c1cc(Cc2n[nH]c(=O)c3ccccc23)ccc1F)N1CCN(C(=O)C2CC2)CC1 [olaparib] | more resistant | cross-resistance | did not inhibit tumor growth | did not inhibit tumor growth | – |
| C[C@]1(c2nc3c(C(N)=O)cccc3[nH]2)CCCN1 [veliparib] | – | cross-resistance | – | – | – |
| AZD4547 | – | – | inhibited tumor growth | not | – |
| Cn1ncnc1[C@H]1c2n[nH]c(=O)c3cc(F)cc(c23)N[C@@H]1c1ccc(F)cc1 [talazoparib] | more resistant | – | did not inhibit tumor growth | did not inhibit tumor growth | half-maximal inhibitory concentration in BR cells relative to parental cells ([1]; MTT assays, BR cells vs SUM149 parental cells): more than 100 fold; increase in resistance to talazoparib on PARP1 knockdown ([1]; SUM149, BR# 09 and BR# 17 cells with shPARP1 vs non-targeting shRNA control): ≥ 10 fold; yH2AX foci at 8 hours compared with 4 hours (BR# 17 cells [3]): significantly decreased; half-maximal inhibitory concentration in BR cells relative to parental cells [4]: more than 100 fold; FGFR3 phosphorylation in tumors (BR# 09 cells; tumors harvested after 3 days of treatment, talazoparib alone): induced |
| CCN(CC)CCCCNc1ncc2cc(-c3cc(OC)cc(OC)c3)c(NC(=O)NC(C)(C)C)nc2n1 [PD173074] | – | – | did not inhibit tumor growth | did not inhibit tumor growth | FGFR phosphorylation in response to MMS and talazoparib (FGFR3): inhibited; p-Y158 PARP1 level (p-Y158 PARP1): diminished; yH2AX foci at 8 hours compared with 4 hours (BR# 17 cells [3]): significantly decreased; talazoparib-induced PARP1 trapping (PARP1): prolong; body weight (BR# 09 cells; BR xenograft mouse models, PD173074 15 mg/kg per day, alone or with talazoparib 0.25 mg/kg per day, long-term treatment): no loss of body weight; talazoparib-induced FGFR phosphorylation in tumors (BR# 09 cells; PD173074 10 mg/kg per day): inhibited; talazoparib-induced FGFR phosphorylation in tumors (BR# 09 cells; PD173074 20 mg/kg per day): less than the basal levels |
| activated FGFR kinase domain | – | – | – | – | tyrosine phosphorylation in in vitro kinase assay (Western blot with anti-phospho-tyrosine antibodies; mass spectrum analysis) [5]: FGFR can phosphorylate PARP1 at tyrosine (Y)158 and Y176 amino acids |
